Patent US10064830B2, “Treatment and prevention of cardiovascular disease and thrombosis” (The Cleveland Clinic Foundation, priority 2012, dated 2018)
“Also recorded” adds a separate entry of the source.

Columns and labels:
[1] = test system: C57BL/6J.Apoe−/− male mice; experiment: Aortic root lesion plaque, oil red O staining (Example 2); assay type: in vivo
Source text: C57BL/6J.Apoe−/− male mice at the time of weaning (4 weeks) were placed on chow diet supplemented with 1.3% choline, 1.3% DMB, both, or neither. Aortic root section was stained with oil red 0/hematoxin. The red oil staining area inside the aorta indicates lesion plaque (SEE FIGS. 3 and 4).

[2] = test system: platelets; experiment: Ex vivo platelet aggregation triggered by ADP, platelets from mice on diets (Example 7, parts 2-4); assay type: in vivo; conditions: platelets from mice on high choline or TMAO diet +/- antibiotics or DMB
Method: (§1) In this example, mice were placed on either normal chow diet at time of weaning, or a high choline diet. After several weeks, whole blood was removed, and platelets isolated. The ability of a submaximal agonist of platelets, ADP, to trigger platelet aggregation was then determined. In parallel, plasma levels of TMAO were determined by established stable isotope dilution LC/MS/MS analyses. […] This is a clear signal of a pro-thrombotic phenotype in the mice on a high choline diet. In a similar study, the mice on the high choline were also placed on a cocktail of broad spectrum antibiotics (described above and in Wang et al., Nature 2011, April, 472(7341):57-63, incorporated by reference it its entirety for all purposes) to suppress intestinal microflora, and reduce plasma TMAO levels. […] Such drugs (e.g., DMB or antibiotics) are attractive since they should not induce excess bleeding (e.g., like commercial anti-thrombotic drugs like clopidogrel or Warfarin). That is, TMAO only accentuates platelet function, and reducing TMAO levels (like with DMB, antibiotic, or some other drug or approach, be it functional food, probiotic, or prebiotic) would decrease in vivo thrombosis, but not reduce below “normal” function, and thus not increase bleeding risk. […]

[3] = test system: gut flora; experiment: Plasma TMA and TMAO in mice after 3 weeks on diets +/- ABS or DMB (Example 7, part 1); assay type: in vivo; conditions: female mice, 3 weeks on diet, chow or 1.0% wt/wt choline
Method: Six week old female mice were placed on the indicated diets +/− shown in FIG. 9, including Chow, CHOW+antibiotics (ABS; which was 0.5 g/L vancomycin, 1 g/L neomycin sulfate, 1 g/L metronidazole, and 1 g/L ampicillin), TMAO, CH (chow supplemented with 1.0% wt/wt choline), CH and ABS, and CH+DMB. Mice were placed on these diets at 6 weeks of age and maintained on the diets for 3 weeks. Plasma was then recovered and both TMA and TMAO were determined by stable isotope dilution LC/MS/MS.

[4] = test system: Peritoneal macrophages; experiment: Cholesterol accumulation and foam cell formation in peritoneal macrophages, oil red O staining (Example 4); assay type: in vivo, C57BL/6J.Apoe−/− male mice; conditions: 1.3% DMB added to 1.3% choline diet
Method: Experiments were conducted during development of embodiments of the present invention to examine the effect of addition of DMB on cholesterol accumulation and foam cell formation. C57BL/6J.Apoe−/− male mice at the time of weaning (4 weeks) were placed on chow diet supplemented with 1.3% choline, 1.3% DMB, both, or neither. Peritoneal macrophages were collected, fixed in 4% paraformaldehyde and stained with oil red 0/hematoxin.

[5] = test system: peritoneal mouse macrophages; experiment: Total cholesterol in peritoneal macrophages by stable isotope dilution LC/MS/MS (Example 5); assay type: in vivo, C57BL/6J.Apoe−/− male mice; conditions: chow with 1.3% choline, 1.3% DMB, both or neither
Method: Experiments were conducted during development of embodiments of the present invention to determine the effect of DMB on total cholesterol level in peritoneal mouse macrophages (SEE FIG. 7). C57BL/6J.Apoe−/− male mice at the time of weaning (4 weeks) were placed on chow diet supplemented with 1.3% choline, 1.3% DMB, both, or neither. The total cholesterol of cells was quantified by stable isotope dilution LC/MS/MS. Cells number was quantified by protein content in cell lystates.

[6] = test system: endogenous foam cell formation; experiment: Macrophage cholesterol content and plasma TMAO in mice on chow supplemented with choline, TMAO or DMB (Example 1); assay type: in vivo, C57BL/6J.Apoe−/− mice; conditions: normal chow supplemented with choline, TMAO or DMB vs normal chow control
Method: Male C57BL/6J.Apoe−/− mice (15 week old) were placed on normal chow (control) alone or supplemented in the presence of either choline (1.0%), TMAO (0.12%), or DMB (1.0%). Peritoneal macrophages were recovered from the indicated number of mice at 20 weeks of age and cellular cholesterol content was quantified by stable isotope dilution GC/MS, and normalized to DNA content.
Experiments were conducted during development of embodiments of the present invention to examine the structural specificity of phaophatidylcholine metabolites in promoting a pro-atherogenic macrophage phenotype as monitored by endogenous foam cell formation. C57BL/6J.Apoe−/− mice at time of weaning were placed on either normal chow diet (control) or normal chow supplemented with either choline, TMAO or the choline analog DMB, where the quaternary amine nitrogen of choline is replaced with a carbon (SEE FIG. 2, right). Thus, DMB is structurally identical to choline except there is no C—N bond for potential cleavage and TMA formation by gut flora.

[7] = Plasma lipoprotein profile of mice on supplemented chow (Example 3); assay type: in vivo; conditions: 1.3% DMB added to mouse diet
Method: Experiments were conducted during development of embodiments of the present invention to compare plasma levels of (1) cholesterol, (2) triglyceride, low density lipoprotein-cholesterol, and HDL cholesterol in mice fed chow, or chow supplemented with 1.3% choline, 1.3% DMB, or both (SEE FIG. 5).

[8] = test system: intestinal microflora; experiment: Intestinal microflora-catalyzed generation of trimethylamine from D9-choline in cecum homogenate (Example 6); assay type: biochemical, Mouse; conditions: D9-choline substrate
Method: Experiments were conducted during development of embodiments of the present invention to examine the effect of DMB on intestinal microflora-catalyzed generation of trimethylamine from choline. Mouse celum was homogenized as a source of intestinal microflora. D9-choline was used as a substrate and the generation of […] was quantificed by stable isotope dilution LC/MS/MS.

[9] = test system: wild-type mice; experiment: Carotid artery in vivo thrombosis rates by vital microscopy, wild-type mice (Example 7, parts 6-7); conditions: for in vivo thrombosis rates: diets +/- ABS or DMB for 3 weeks
Method: This example repeats the study immediately above, excepts uses wild-type mice. The results are shown FIG. 14.
Carotid artery in vivo thrombosis rates were determined using vital microscopy on the indicated groups of mice shown in FIG. 15. Mice were on the indicated diets +/− ABS or DMB for 3 weeks.

[10] = test system: gut flora; experiment: Plasma TMAO by stable isotope dilution LC/MS/MS in the mice of the platelet aggregation study; assay type: in vivo; conditions: high choline diet +/- antibiotics or DMB
Method: as §1

[11] = test system: Atherosclerosis Prone ApoE−/− Mice; experiment: Carotid artery in vivo thrombosis rates by vital microscopy, ApoE−/− mice (Example 7, part 5); conditions: diets +/- ABS for 3 weeks
Method: In this example, carotid artery in vivo thrombosis rates were determined using vital microscopy on the indicated groups of mice in FIG. 13. Mice were on the indicated diets +/− ABS for 3 weeks.
These studies extend to in vivo studies what was seen before with ex vivo platelet aggregation studies from mice on the various indicated diets. […] A shorter time indicates faster platelet aggregation (enhanced in vivo thrombosis).

[12] = test system: proteus mirabilis; experiment: TMA production from choline by proteus mirabilis (FIG. 24); assay type: cell-based

SMILES | reduction of aortic plaque formation ([1]; 1.3% DMB added to normal chow diet, apoE−/− mice) [%] | increases in atherosclerotic plaque induced by the high choline diet ([1]; addition to chow with 1.3% choline) | platelet aggregation (response to ADP) [2] | plasma TMA [3] | plasma TMAO [3] | cholesterol accumulation and foam cell formation [4] | macrophage cholesterol content (total cholesterol of cells) [5] | macrophage cholesterol content [6] | plasma levels of TMAO [6] | plasma HDL cholesterol [7] | plasma low density lipoprotein-cholesterol [7] | plasma total cholesterol [7] | plasma triglyceride [7] | gut flora-mediated catabolism of choline to TMA [8] | in vivo thrombosis rates [9] | TMAO levels ([9]; high choline diet +/- ABS or DMB for 3 weeks) | plasma TMAO levels [10] | in vivo thrombosis rates (time to cessation of blood flow in the carotid artery) [11] | TMA production from choline [12]
CC(C)(C)CCO [DMB, 3,3-dimethyl-1-butanol] | ~90 | blocks the diet-induced enhanced artherosclerosis | markedly reduces platelet hyperresponsiveness; also recorded: blocks platelet hyper-responsiveness (aggregation) | inhibits TMA and TMAO formation | inhibits TMA and TMAO formation | reversed the high choline diet induced cholesterol accumulation and foam cell formation | blocked | no increased accumulation of cholesterol in endogenous macrophages | no TMAO increase | increase in high density lipoproteins | significant reductions | significant reductions | significant reductions | markedly inhibited | block the reduction in in vivo thrombosis rates seen on a high choline diet | block TMAO levels | inhibits TMAO formation | – | –
C[N+](C)(C)[O-] [TMAO, trimethylamine N-oxide, reference compound] | – | – | promotes enhanced platelet aggregation | – | – | – | – | increased macrophage cholesterol content | elevated plasma levels of TMAO | – | – | – | – | – | Enhances In Vivo Thrombosis Rates | – | – | promotes accelerated in vivo thrombosis rates | –
C[Si](C)(C)CCO [trimethylsilylethanol, trimethylsilyl ethanol] | – | – | – | – | – | – | – | – | – | – | – | – | – | – | – | – | – | – | serves as an inhibitor of TMA production from choline
